Here are results for 1 compound from PMC3634096 (The Korean Journal of Physiology & Pharmacology : …, 2013).

The IC50 is the concentration that inhibits the measured activity by half. A lower IC50 goes with greater potency in that assay.

The target in this experiment is GABAC receptor ρ1 subunit (homomeric) (Homo sapiens, UniProt P24046). Briefly: two-electrode voltage clamp in Xenopus oocytes, inhibition of GABA. In kind it is cell-based. (In general: Two-electrode voltage clamp holds a large cell at a set potential and records current.)
GABAC receptor ρ1 subunit (homomeric), sequence (P24046 22-479): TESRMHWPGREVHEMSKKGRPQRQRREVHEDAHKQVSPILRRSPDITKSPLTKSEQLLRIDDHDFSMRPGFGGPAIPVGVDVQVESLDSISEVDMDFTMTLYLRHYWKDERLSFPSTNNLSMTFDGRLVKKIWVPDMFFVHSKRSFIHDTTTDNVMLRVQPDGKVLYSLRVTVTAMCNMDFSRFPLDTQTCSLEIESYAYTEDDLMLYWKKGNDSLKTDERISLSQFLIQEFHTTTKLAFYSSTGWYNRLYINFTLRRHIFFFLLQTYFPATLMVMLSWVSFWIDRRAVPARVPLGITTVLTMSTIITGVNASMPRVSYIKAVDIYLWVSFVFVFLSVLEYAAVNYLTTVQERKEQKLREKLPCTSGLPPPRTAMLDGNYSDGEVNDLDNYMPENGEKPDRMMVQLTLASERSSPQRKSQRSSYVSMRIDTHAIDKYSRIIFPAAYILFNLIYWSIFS

With `Oc1ccc(/C=C/c2cc(O)cc(O)c2)cc1` [Res, Resveratrol], it took 28.9 ± 2.8 µM to reach half-maximal inhibition (IC50).
